Starred links: 1 amine or outer side, 2 acyl side, 3 side chain; linkers in the order of their positions; H or OH if unused. Non-standard residues stand in square brackets, D forms with d. Residues, ends and D or L forms follow the SMILES beside them. Ala(2-carboxypyrimidin-5-yl) = N[C@@H](Cc1cnc(C(=O)O)nc1)C(=O)O; dPro(4R-(4-pyridylmethyl)) = O=C(O)[C@H]1C[C@@H](Cc2ccncc2)CN1; Trp(βS-Me,4-F) = C[C@@H](c1c[nH]c2cccc(F)c12)[C@H](N)C(=O)O; Bip(4'-COOH) = N[C@@H](Cc1ccc(-c2ccc(C(=O)O)cc2)cc1)C(=O)O; dPro(4R-Bzl(4-F)) = O=C(O)[C@H]1C[C@@H](Cc2ccc(F)cc2)CN1; X31 = O=C(O)c1ccc([C@@H](O)[C@H](N[*:1])C(=O)[*:2])cc1; X41 = O=C([C@@H](N[*:1])[C@@H](O)c1ccncc1)[*:2]; Ala(pyrimidin-5-yl) = N[C@@H](Cc1cncnc1)C(=O)O; Phe(4-COOH) = N[C@@H](Cc1ccc(C(=O)O)cc1)C(=O)O; X24 = NC(=O)c1ncc(C[C@H](N[*:1])C(=O)[*:2])cn1; X30 = O=C([C@@H](N[*:1])[C@H](O)c1ccncc1)[*:2]; X44 = CC(=O)N1CCN(C[C@H](N[*:1])C(=O)[*:2])CC1; Bip = N[C@@H](Cc1ccc(-c2ccccc2)cc1)C(=O)O; Pro(cis-4-F) = O=C(O)[C@@H]1C[C@H](F)CN1; Met(O2) = CS(=O)(=O)CC[C@H](N)C(=O)O; Dap(CONH2) = NC(=O)NC[C@H](N)C(=O)O; cisHyp = O=C(O)[C@@H]1C[C@H](O)CN1; d(αMeD) = C[C@@](N)(CC(=O)O)C(=O)O; 4Pal = N[C@@H](Cc1ccncc1)C(=O)O; Dab = NCC[C@H](N)C(=O)O; Aib = CC(C)(N)C(=O)O
Target: T1, IL-1β (Homo sapiens, UniProt P01584)
T1 construct: purchased BioLegend 579404
T1 sequence (P01584 117-269): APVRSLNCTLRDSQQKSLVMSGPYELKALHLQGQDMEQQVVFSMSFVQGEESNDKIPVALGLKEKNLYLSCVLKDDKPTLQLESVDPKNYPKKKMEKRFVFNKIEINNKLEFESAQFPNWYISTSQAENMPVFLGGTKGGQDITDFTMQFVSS
Experiment: IL-6 assay in MRC5 cells: inhibition of IL-1β induced IL-6 secretion (AlphaLISA)
Assay type: cell-based
Conditions: inhibition of IL-1β induced IL-6 secretion in MRC5 cells; compound pre-incubated 1 hour with recombinant human IL-1β; read-out: MRC5 IC50
How it was run: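 Compound was pre-incubated 1 h at ambient temperature with recombinant human IL-1β at 2λ EC80 before adding human lung fibroblast MRC5 cells (3000/well) in EMEM with 0.025% BSA. After overnight culture at 37 °C, 5% CO2, secreted IL-6 in conditioned medium was measured by AlphaLISA; IC50 from 4-parameter logistic fits.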

IC50 [nM]	SMILES
0.017	C[C@@H](c1c[nH]c2cccc(F)c12)[C@@H]1NC(=O)[C@@H]2C[C@H](O)CN2C(=O)CNC(=O)[C@H](Cc2ccc(C(=O)O)cc2)NC(=O)[C@H](Cc2ccncc2)NC(=O)[C@H](Cc2ccc(-c3ccccc3)cc2)NC(=O)[C@H]2C[C@@H](Cc3ccncc3)CN2C(=O)CNC(=O)[C@H](CCN)NC(=O)[C@H](CCC(N)=O)NC(=O)[C@H](Cc2cncnc2)NC(=O)[C@@](C)(CC(=O)O)NC(=O)[C@H](Cc2c[nH]c3ccccc23)NC(=O)[C@H](CO)NC(=O)C(C)(C)NC1=O [Example 264] (cyclo([Bip][4Pal][Phe(4-COOH)]G[cisHyp][Trp(βS-Me,4-F)][Aib]SW[d(αMeD)][Ala(pyrimidin-5-yl)]Q[Dab]G[dPro(4R-(4-pyridylmethyl))]))
0.022	C[C@@H](c1c[nH]c2cccc(F)c12)[C@@H]1NC(=O)[C@@H]2C[C@H](F)CN2C(=O)CNC(=O)[C@H](Cc2ccc(C(=O)O)cc2)NC(=O)[C@H](Cc2ccncc2)NC(=O)[C@H](Cc2ccc(-c3ccccc3)cc2)NC(=O)[C@H]2C[C@@H](Cc3ccncc3)CN2C(=O)CNC(=O)[C@H](CCN)NC(=O)[C@H](CCC(N)=O)NC(=O)[C@@H](CC(=O)O)NC(=O)C(C)(C)NC(=O)[C@H](Cc2c[nH]c3ccccc23)NC(=O)[C@H](CO)NC(=O)C(C)(C)NC1=O [Example 265] (cyclo([Bip][4Pal][Phe(4-COOH)]G[Pro(cis-4-F)][Trp(βS-Me,4-F)][Aib]SW[Aib][dD]Q[Dab]G[dPro(4R-(4-pyridylmethyl))]))
0.019	C[C@@H](c1c[nH]c2cccc(F)c12)[C@@H]1NC(=O)[C@@H]2C[C@H](F)CN2C(=O)CNC(=O)[C@H](Cc2ccc(C(=O)O)cc2)NC(=O)[C@H](Cc2ccncc2)NC(=O)[C@H](Cc2ccc(-c3ccc(C(=O)O)cc3)cc2)NC(=O)[C@H]2C[C@@H](Cc3ccncc3)CN2C(=O)CNC(=O)[C@H](CCN)NC(=O)[C@H](CCC(N)=O)NC(=O)[C@H](CCS(C)(=O)=O)NC(=O)C(C)(C)NC(=O)[C@H](Cc2c[nH]c3ccccc23)NC(=O)[C@H](CO)NC(=O)C(C)(C)NC1=O [Example 266] (cyclo([Bip(4'-COOH)][4Pal][Phe(4-COOH)]G[Pro(cis-4-F)][Trp(βS-Me,4-F)][Aib]SW[Aib][Met(O2)]Q[Dab]G[dPro(4R-(4-pyridylmethyl))]))
0.014	C[C@@H](c1c[nH]c2cccc(F)c12)[C@@H]1NC(=O)[C@@H]2C[C@H](F)CN2C(=O)CNC(=O)[C@H](Cc2ccc(C(=O)O)cc2)NC(=O)[C@H](Cc2ccncc2)NC(=O)[C@H](Cc2ccc(-c3ccc(C(=O)O)cc3)cc2)NC(=O)[C@H]2C[C@@H](Cc3ccncc3)CN2C(=O)CNC(=O)[C@H](CCN)NC(=O)[C@H](CCC(N)=O)NC(=O)[C@H](Cc2cnc(C(N)=O)nc2)NC(=O)C(C)(C)NC(=O)[C@H](Cc2c[nH]c3ccccc23)NC(=O)[C@H](CO)NC(=O)C(C)(C)NC1=O [Example 267] (cyclo([Bip(4'-COOH)][4Pal][Phe(4-COOH)]G[Pro(cis-4-F)][Trp(βS-Me,4-F)][Aib]SW[Aib][X24]Q[Dab]G[dPro(4R-(4-pyridylmethyl))]))
0.014	C[C@@H](c1c[nH]c2cccc(F)c12)[C@@H]1NC(=O)[C@@H]2C[C@H](F)CN2C(=O)CNC(=O)[C@H](Cc2ccc(C(=O)O)cc2)NC(=O)[C@H](Cc2ccncc2)NC(=O)[C@H](Cc2ccc(-c3ccc(C(=O)O)cc3)cc2)NC(=O)[C@H]2C[C@@H](Cc3ccncc3)CN2C(=O)CNC(=O)[C@H](CCN)NC(=O)[C@H](CCC(N)=O)NC(=O)[C@H](Cc2cnc(C(=O)O)nc2)NC(=O)C(C)(C)NC(=O)[C@H](Cc2c[nH]c3ccccc23)NC(=O)[C@H](CO)NC(=O)C(C)(C)NC1=O [Example 268] (cyclo([Bip(4'-COOH)][4Pal][Phe(4-COOH)]G[Pro(cis-4-F)][Trp(βS-Me,4-F)][Aib]SW[Aib][Ala(2-carboxypyrimidin-5-yl)]Q[Dab]G[dPro(4R-(4-pyridylmethyl))]))
0.014	C[C@@H](c1c[nH]c2cccc(F)c12)[C@@H]1NC(=O)[C@@H]2C[C@H](F)CN2C(=O)CNC(=O)[C@H](Cc2ccc(C(=O)O)cc2)NC(=O)[C@H](Cc2ccncc2)NC(=O)[C@H](Cc2ccc(-c3ccccc3)cc2)NC(=O)[C@H]2C[C@@H](Cc3ccncc3)CN2C(=O)CNC(=O)[C@H](CCN)NC(=O)[C@H](CCC(N)=O)NC(=O)[C@H](Cc2cnc(C(=O)O)nc2)NC(=O)C(C)(C)NC(=O)[C@H](Cc2c[nH]c3ccccc23)NC(=O)[C@H](CO)NC(=O)C(C)(C)NC1=O [Example 269] (cyclo([Bip][4Pal][Phe(4-COOH)]G[Pro(cis-4-F)][Trp(βS-Me,4-F)][Aib]SW[Aib][Ala(2-carboxypyrimidin-5-yl)]Q[Dab]G[dPro(4R-(4-pyridylmethyl))]))
0.023	C[C@@H](c1c[nH]c2cccc(F)c12)[C@@H]1NC(=O)[C@@H]2C[C@H](F)CN2C(=O)CNC(=O)[C@H](Cc2ccc(C(=O)O)cc2)NC(=O)[C@H](Cc2ccncc2)NC(=O)[C@H](Cc2ccc(-c3ccc(C(=O)O)cc3)cc2)NC(=O)[C@H]2C[C@@H](Cc3ccncc3)CN2C(=O)CNC(=O)[C@H](CNC(N)=O)NC(=O)[C@H](CCC(N)=O)NC(=O)[C@H](Cc2cncnc2)NC(=O)C(C)(C)NC(=O)[C@H](Cc2c[nH]c3ccccc23)NC(=O)[C@H](CO)NC(=O)C(C)(C)NC1=O [Example 270] (cyclo([Bip(4'-COOH)][4Pal][Phe(4-COOH)]G[Pro(cis-4-F)][Trp(βS-Me,4-F)][Aib]SW[Aib][Ala(pyrimidin-5-yl)]Q[Dap(CONH2)]G[dPro(4R-(4-pyridylmethyl))]))
0.023	CC(=O)N1CCN(C[C@@H]2NC(=O)C(C)(C)NC(=O)[C@H](Cc3c[nH]c4ccccc34)NC(=O)[C@H](CCC(=O)O)NC(=O)C(C)(C)NC(=O)[C@H]([C@@H](C)c3c[nH]c4cccc(F)c34)NC(=O)[C@@H]3C[C@H](F)CN3C(=O)CNC(=O)[C@H](Cc3ccc(C(=O)O)cc3)NC(=O)[C@H](Cc3ccncc3)NC(=O)[C@H](Cc3ccc(-c4ccc(C(=O)O)cc4)cc3)NC(=O)[C@H]3C[C@@H](Cc4ccc(F)cc4)CN3C(=O)CNC(=O)[C@H](CO)NC(=O)[C@H](CCC(N)=O)NC2=O)CC1 [Example 271] (cyclo([Bip(4'-COOH)][4Pal][Phe(4-COOH)]G[Pro(cis-4-F)][Trp(βS-Me,4-F)][Aib]EW[Aib][X44]QSG[dPro(4R-Bzl(4-F))]))
0.018	C[C@@H](c1c[nH]c2cccc(F)c12)[C@@H]1NC(=O)[C@@H]2C[C@H](F)CN2C(=O)CNC(=O)[C@H](Cc2ccc(C(=O)O)cc2)NC(=O)[C@H](Cc2ccncc2)NC(=O)[C@H](Cc2ccc(-c3ccc(C(=O)O)cc3)cc2)NC(=O)[C@H]2C[C@@H](Cc3ccc(F)cc3)CN2C(=O)CNC(=O)[C@H](CCN)NC(=O)[C@H](CCC(N)=O)NC(=O)[C@H]([C@@H](O)c2ccncc2)NC(=O)C(C)(C)NC(=O)[C@H](Cc2c[nH]c3ccccc23)NC(=O)[C@H](CO)NC(=O)C(C)(C)NC1=O [Example 272] (cyclo([Bip(4'-COOH)][4Pal][Phe(4-COOH)]G[Pro(cis-4-F)][Trp(βS-Me,4-F)][Aib]SW[Aib][X41]Q[Dab]G[dPro(4R-Bzl(4-F))]))
0.013	C[C@@H](c1c[nH]c2cccc(F)c12)[C@@H]1NC(=O)[C@@H]2C[C@H](F)CN2C(=O)CNC(=O)[C@H](Cc2ccc(C(=O)O)cc2)NC(=O)[C@H](Cc2ccncc2)NC(=O)[C@H](Cc2ccc(-c3ccc(C(=O)O)cc3)cc2)NC(=O)[C@H]2C[C@@H](Cc3ccc(F)cc3)CN2C(=O)CNC(=O)[C@H](CCN)NC(=O)[C@H](CCC(N)=O)NC(=O)[C@H]([C@H](O)c2ccncc2)NC(=O)C(C)(C)NC(=O)[C@H](Cc2c[nH]c3ccccc23)NC(=O)[C@H](CO)NC(=O)C(C)(C)NC1=O [Example 273] (cyclo([Bip(4'-COOH)][4Pal][Phe(4-COOH)]G[Pro(cis-4-F)][Trp(βS-Me,4-F)][Aib]SW[Aib][X30]Q[Dab]G[dPro(4R-Bzl(4-F))]))
0.026	C[C@@H](c1c[nH]c2cccc(F)c12)[C@@H]1NC(=O)[C@@H]2C[C@H](F)CN2C(=O)CNC(=O)[C@H](Cc2ccc(C(=O)O)cc2)NC(=O)[C@H]([C@H](O)c2ccncc2)NC(=O)[C@H](Cc2ccc(-c3ccc(C(=O)O)cc3)cc2)NC(=O)[C@H]2C[C@@H](Cc3ccc(F)cc3)CN2C(=O)CNC(=O)[C@H](CCN)NC(=O)[C@H](CCC(N)=O)NC(=O)[C@H](Cc2cncnc2)NC(=O)C(C)(C)NC(=O)[C@H](Cc2c[nH]c3ccccc23)NC(=O)[C@H](CO)NC(=O)C(C)(C)NC1=O [Example 274] (cyclo([Bip(4'-COOH)][X30][Phe(4-COOH)]G[Pro(cis-4-F)][Trp(βS-Me,4-F)][Aib]SW[Aib][Ala(pyrimidin-5-yl)]Q[Dab]G[dPro(4R-Bzl(4-F))]))
0.018	C[C@@H](c1c[nH]c2cccc(F)c12)[C@@H]1NC(=O)[C@@H]2C[C@H](F)CN2C(=O)CNC(=O)[C@H]([C@H](O)c2ccc(C(=O)O)cc2)NC(=O)[C@H](Cc2ccncc2)NC(=O)[C@H](Cc2ccc(-c3ccc(C(=O)O)cc3)cc2)NC(=O)[C@H]2C[C@@H](Cc3ccc(F)cc3)CN2C(=O)CNC(=O)[C@H](CCN)NC(=O)[C@H](CCC(N)=O)NC(=O)[C@H](Cc2cncnc2)NC(=O)C(C)(C)NC(=O)[C@H](Cc2c[nH]c3ccccc23)NC(=O)[C@H](CO)NC(=O)C(C)(C)NC1=O [Example 275] (cyclo([Bip(4'-COOH)][4Pal][X31]G[Pro(cis-4-F)][Trp(βS-Me,4-F)][Aib]SW[Aib][Ala(pyrimidin-5-yl)]Q[Dab]G[dPro(4R-Bzl(4-F))]))
0.017	C[C@@H](c1c[nH]c2cccc(F)c12)[C@@H]1NC(=O)[C@@H]2C[C@H](F)CN2C(=O)CNC(=O)[C@H](Cc2ccc(C(=O)O)cc2)NC(=O)[C@H](Cc2ccncc2)NC(=O)[C@H](Cc2ccc(-c3ccc(C(=O)O)cc3)cc2)NC(=O)[C@H]2C[C@@H](Cc3ccc(F)cc3)CN2C(=O)CNC(=O)[C@H](CCN)NC(=O)[C@H](CCC(N)=O)NC(=O)[C@H](Cc2c[nH]cn2)NC(=O)C(C)(C)NC(=O)[C@H](Cc2c[nH]c3ccccc23)NC(=O)[C@H](CCC(=O)O)NC(=O)C(C)(C)NC1=O [Example 276] (cyclo([Bip(4'-COOH)][4Pal][Phe(4-COOH)]G[Pro(cis-4-F)][Trp(βS-Me,4-F)][Aib]EW[Aib]HQ[Dab]G[dPro(4R-Bzl(4-F))]))
